Source: patent publication US9340551B2, “Inhibitors of bacterial type III secretion system” (MICROBIOTIX, INC., priority 2011, dated 2016)
Where two headings read alike, the source gives them in different places.

Key:
[1] = system: T3SS-mediated secretion of ExoS′-βLA fusion protein, P. aeruginosa strain MDM973; assay: ExoS′-βLA effector-β-lactamase secretion assay (nitrocefin cleavage); settings: for IC50: Pseudomonas aeruginosa; for IC50 in the ExoS′βLA assay versus reference inhibitor MBX-1641, in words: FIG. 2; for inhibition of ExoS′-βLA secretion, in words: FIG. 4, concentration-dependence; for Secretion, % @50 μM: Table 4; for performance in T3SS-mediated secretion relative to MBX-1641, in words: α-propyl and α-isopropyl analogs
[2] = Mammalian cytotoxicity (MTS conversion, serum-free medium); assay type: cell-based, human; settings: human, HeLa cells
[3] = system: T3SS-mediated translocation (ExoU intoxication of CHO cells); assay: Inhibition of P. aeruginosa ExoU-dependent CHO cell killing (LDH release); settings: Pseudomonas aeruginosa
Experimental: Rescue of CHO cells from T3SS-mediated cytotoxicity of translocated effector protein ExoU was measured using a lactate dehydrogenase (LDH) release assay as previously reported (Lee, et al., 2005, Infect. Immun., 73:1695-705) except that infection with P. aeruginosa was carried out for 2 hr in the absence of gentamicin. Percent cytotoxicity (% LDH release) was calculated relative to that of the uninfected control, which was set at 0% LDH release, and that of cells infected with P. aeruginosa unprotected by test compound (100% LDH release). LDH released from unprotected, infected cells reached at least 80% of the value obtained from complete lysis with 1% Triton X-100 in the 2 hr timeframe of this experiment.

HeLa cells = assay: Mammalian cytotoxicity (MTS conversion, serum-free medium); assay type: cell-based, human; settings: Table 4; average of 1-20 determinations; read-out: Ave. CC50
[4] = Table 4, average of 1-20 determinations, read-out: Ave. CC50
[5] = read-out: Ave. Translocation IC50

SMILES | IC50 ([1]; read-out: Ave. Secretion IC50) [µM] | IC50 [3, 5] [µM] | melting point [°C] | also measured
CC(Oc1ccc(Cl)cc1Cl)C(=O)NCc1ccc2c(c1)OCO2 (racemic) [MBX-1641, N-(benzo[d][1,3]dioxol-5-ylmethyl)-2-(2,4-dichlorophenoxy)propanamide, reference compound] | 7 |  |  | 
CCC(Oc1ncc(Cl)cc1Cl)C(=O)NCc1ccc2c(c1)OCO2 (racemic) [MBX-2263] | 2 | 17 |  | CC50 at 3 days [2, 4]: > 100 µM; IC50 in the ExoS′βLA assay versus reference inhibitor MBX-1641, in words [1]: improvements; inhibition of ExoS′-βLA secretion, in words [1]: potent inhibition of secretion
CCC(Oc1ncc(Cl)cc1Cl)C(=O)NCc1ccc2sccc2c1 (racemic) [MBX-2359, N-(benzo[b]thiophen-5-ylmethyl)-2-(3,5-dichloropyridin-2-yloxy)butanamide] | 1.5 |  |  | inhibition of ExoS′-βLA secretion, in words [1]: potent inhibition of secretion
CC(Oc1ccc(Cl)cc1Cl)C(=O)NCc1ccc(F)cc1 (centres unmarked) [MBX-1642] | 9.8 |  |  | 
COc1ccc(CNC(=O)C(C)Oc2ccc(Cl)cc2Cl)cc1 (centres unmarked) [MBX-1940] |  |  | 77 | 
COc1ccc(CNC(=O)C(C)Oc2ccc(Cl)cc2Cl)cc1OC (centres unmarked) [MBX-1942] |  |  | 127 | 
CCC(Oc1ccc(Cl)cc1Cl)C(=O)NCc1ccc2c(c1)OCO2 (centres unmarked) [MBX-2081] | 3.9 | 4.2 | 112 | CC50 at 3 days ([2]; Table 3, serum-free media, read-out: CC50): > 200 µM; CC50 (HeLa cells): > 200 µM; IC50 in the ExoS′βLA assay versus reference inhibitor MBX-1641, in words [1]: improvements; IC50 ([1]; read-out: Secretion IC50): 3.9 µM; SI, Selectivity Index (CC50/secretion IC50) ([1]; Table 3, HeLa CC50 / secretion IC50): >50; increase in potency as a T3SS inhibitor relative to MBX-1641 ([1]; α-ethyl analog versus MBX-1641): 3-4 fold; IC50 ([3]; read-out: Translocation IC50): 4.2 µM
CCC(Oc1ccc(Cl)cc1Cl)C(=O)NCc1ccc(OC)c(OC)c1 (centres unmarked) [MBX-2082] | 16.3 | > 100 | 117 | 
CCC(Oc1ccc(Cl)cc1Cl)C(=O)NCc1ccc(OC)cc1 (centres unmarked) [MBX-2083] | 8.1 | 29.3 | 86 | 
CCC(Oc1ccc(Cl)cc1Cl)C(=O)NCc1ccc(F)cc1 (centres unmarked) [MBX-2084] | 4.3 | 7.4 | 108 | CC50 at 3 days [2, 4]: 45 µM
CCCC(Oc1ccc(Cl)cc1Cl)C(=O)NCc1ccc2c(c1)OCO2 (centres unmarked) [MBX-2085] |  |  | 92 | Secretion, % @50 μM (printed in the Secretion IC50 column) ([1]; Table 3, @50 μM): 14% @50 μM; Secretion, % @50 μM ([1]; @50 μM): 14% @50 μM; performance in T3SS-mediated secretion relative to MBX-1641, in words [1]: significantly inferior performance
CCCC(Oc1ccc(Cl)cc1Cl)C(=O)NCc1ccc(OC)c(OC)c1 (centres unmarked) [MBX-2086] |  |  | 82 | Secretion, % @50 μM ([1]; @50 μM): 18% @50 μM
CCCC(Oc1ccc(Cl)cc1Cl)C(=O)NCc1ccc(OC)cc1 (centres unmarked) [MBX-2087] |  |  | 103 | Secretion, % @50 μM ([1]; @50 μM): 16% @50 μM
CCCC(Oc1ccc(Cl)cc1Cl)C(=O)NCc1ccc(F)cc1 (centres unmarked) [MBX-2088] |  |  |  | Secretion, % @50 μM ([1]; @50 μM): 9% @50 μM
CC(C)C(Oc1ccc(Cl)cc1Cl)C(=O)NCc1ccc2c(c1)OCO2 (centres unmarked) [MBX-2146] | 100 |  | 74 | IC50 ([1]; read-out: Secretion IC50): 100 µM; performance in T3SS-mediated secretion relative to MBX-1641, in words [1]: significantly inferior performance
COc1ccc(CNC(=O)C(Oc2ccc(Cl)cc2Cl)C(C)C)cc1OC (centres unmarked) [MBX-2147] | 94.9 | > 100 | 109 | 
COc1ccc(CNC(=O)C(Oc2ccc(Cl)cc2Cl)C(C)C)cc1 (centres unmarked) [MBX-2148] | 210 |  | 77 | 
CC(C)C(Oc1ccc(Cl)cc1Cl)C(=O)NCc1ccc(F)cc1 (centres unmarked) [MBX-2149] | 1580 |  | 106 | 
CCC(Oc1ccc(Cl)cc1Cl)C(=O)N(C)Cc1ccc2c(c1)OCO2 (centres unmarked) [MBX-2159] | 19.1 | > 100 |  | 
CCC(Oc1ncc(Cl)cc1Cl)C(=O)NCc1ccc(F)cc1 (centres unmarked) [MBX-2264] | 2 | 30 |  | CC50 at 3 days [2, 4]: 85 µM; IC50 in the ExoS′βLA assay versus reference inhibitor MBX-1641, in words [1]: improvements
CCC(Oc1ncc(Cl)cc1Cl)C(=O)NCc1ccc2sccc2c1 (centres unmarked) [MBX-2401, N-(benzo[b]thiophen-5-ylmethyl)-2-(3,5-dichloropyridin-2-yloxy)butanamide] |  |  |  | inhibition of ExoS′-βLA secretion, in words [1]: potent inhibition of secretion
CCC(Oc1ncc(Cl)cc1Cl)C(=O)NCc1ccc2sccc2c1 (centres unmarked) [MBX-2402, N-(benzo[b]thiophen-5-ylmethyl)-2-(3,5-dichloropyridin-2-yloxy)butanamide] |  |  |  | inhibition of ExoS′-βLA secretion, in words [1]: little inhibitory effect
